# Laboratory results reported in US20220372491A1, “TREATMENT OF RENAL CYSTIC DISEASE” (MONASH UNIVERSITY, priority 2019, published 2022).
# Legend:
# Inpp5e^Δ/Δ mice = experiment: Oral Alisertib treatment of Inpp5e^Δ/Δ mice (Joubert Syndrome associated PKD model); format: in vivo, mouse
# Protocol: (§1) Alisertib treatment was performed based on previously published protocols (Nikonova et al., (2014) PNAS 111:12859-12864; Nikonova (2015) Frontiers Oncol. 5:228), as follows: Starting at P9 Inpp5e^Δ/Δ and Inpp5e^Δ/Δ mice were treated once daily for 5 days with Alisertib delivered orally by pipette in a suspended solution with a final composition of 3.6 mg/ml Alisertib ([…], Selleck Chemicals) in 10% 2-hydroxypropyl-β-cyclodextrin ([…]-10ML, Sigma-Aldrich) with 1% (vol/vol) sodium bicarbonate ([…]-100ML, Sigma-Aldrich) and 5% glucose (49163-100ML, Sigma-Aldrich). Mice were dosed with a volume to deliver Alisertib at 10 mg/kg. Mouse body weights were recorded daily. Solutions were stored at 4 degrees for up to 1 month. […] Mice were then given 2 recovery days before being sacrificed at P15. This time frame was selected as it corresponded to an exponential rise in cyst number in Inpp5e^Δ/Δ mice. Aurka^Δ/Δ and Inpp5e^Δ/Δ; Aurka^Δ/Δ treatment groups were also included to determine the AURKA specificity of any phenotypes observed given Alisertib's broad drug targeting profile. Mice were culled via cervical dislocation or decapitation, as most appropriate for their age following ethical guidelines. Procedures were all conducted by ethically approved and trained personnel. Mice were measured for body weight, with ear tissue, urine and kidneys collected. Ear tissue and urine was stored at -20 degrees. Newborn and P4 kidneys were fixed whole in 4% PFA for 16 hrs at 4 degrees, while the kidney capsule membrane was removed from older mouse kidneys, with the kidney cut into halves and fixed in 10% NBF for 16 hrs at room temperature. Half the kidney samples were sent for histological processing and the other half were snap frozen and stored at -80 degrees until processed for RNA, alpha analysis and/or western blotting. Kidney tissues were paraffin imbedded and sectioned at 4 μm for most analysis with the exception of being sectioned at 10 μm for cilia analysis. Antigen retrieval was performed in Citrate buffer pH6 using Tefal pressure cooker or using a DAKO […] system as indicated. Antibody staining was performed as described elsewhere (Cottle et al., (2013) Cell reports, 3: 427-441), except triton x-100 was included in blocking buffers, and cover slips mounted using Prolong Gold (Invitrogen). Antibodies and stains are listed below. Imaging was using an Aperio brightfield and fluorescent scanners (MHP), Olympus Fluoview 500 (Biochemistry Imaging Suite), Nikon C2 or Leica SP8 confocal microscope (MMI). All quantifications with the exception of Nanostring analysis and Chi squared tests for analysis of mendelian ratios, were analyzed using the unpaired Student's t-test assuming unequal variance in Microsoft Excel and P≤0.05 values were considered significant. One or two tailed tests were selected as appropriate for hypothesis. Values presented are Mean±Standard Error of the Mean (S.E.M). 2K/BW % was calculated as the combined kidney weight over total body weight percentage. Albumin Creatinine Ratios (ACR) were calculated as μg Albumin over mg of Creatinine. Cyst identity was measured as a proportion of cyst epithelial area for each marker out of total sum of cyst epithelial areas of all markers (adjusted for marker co-localisation). Cystic index % is calculated as the proportion of cystic space occupied out of total kidney area in DBA-stained kidney longitudinal cross-sections. Cyst number reflects the average number of cysts counted per DBA-stained longitudinal kidney cross section. Cyst size is the average cross-sectional cyst size (mm^2) of cysts sampled from DBA-stained kidney longitudinal cross sections. Due to escape of Cre activity at the Aurka locus in cysts, unless otherwise indicated references to Inpp5e^Δ/Δ; Aurka^Δ/Δ immunostains and their quantifications reflect non-cystic regions throughout this study.
# [1] = tested on: adult mouse models of ADPKD; conditions: cited from earlier work
# [2] = tested on: Inpp5e^Δ/Δ; Aurka^Δ/Δ mice; experiment: Oral Alisertib treatment of Inpp5e^Δ/Δ; Aurka^Δ/Δ (double mutant) mice; format: in vivo, mouse
# Protocol: as §1
# mIMCD3 cells = experiment: Western blots and densitometry of mIMCD3 cell lysates treated with Alisertib; format: cell-based, mouse
# Protocol: mIMCD3 cells were grown as previously described (Plotnikova et al., (2015) J. Cell Sci. 128: 364-372). Using a hemocytometer, mIMCD3 cells were seeded in 6 well dishes at 1.3×10^5 cells per well in growth media and incubated overnight at 37° C. in 5% CO2. Lipofectamine 3000 Reagent kit (Invitrogen) was used for plasmid transfection according to manufacturer's protocol (3.75 μl of Lipofectamine 3000, 2.5 μg DNA and 5 μl of P3000 reagent in each well). siRNA transfections were also performed with Lipofectamine 3000 (Invitrogen) according to manufacturer's protocol (0.75 μl of Lipofectamine 3000, 25 pmol siRNA in each well). Plasmids included pCGN (HA-tag)^48, pCGN-HA-AURKA (gift from Olga Plotniknova), and pCGN-HA-AURKA KD (made in this study using Q5 Site-Directed Mutagenesis Kit NEB.E0554S according to manufacturer's protocol to contain the K162R variant described for pCDNA3.1-mRFP-AURKA K162R). All plasmids were prepared with Qiagen plasmid midiprep kits. siRNAs were All Stars negative control siRNA (S103650318, Qiagen) and Mm_Aurka_1 Flexitube siRNA (S100908803, Qiagen). Alisertib (10 mM in DMSO, S1133, SelleckChem) was added to media at 1 μM final concentration where indicated.
# Following ˜16 hrs after plasmid and siRNA transfections, fresh growth media was placed on mIMCD3 cells and wells harvested up to 24 hrs later. Alternatively, for serum-starvation conditions, 0.5% serum containing was placed on mIMCD3 cells and wells harvested after 24 hrs. For serum-restimulation conditions mIMCD3 cells were first placed in 0.5% serum media for 24 hrs before addition of fresh growth media for up to 20 mins before harvest. For immunofluorescence experiments, mIMCD3 cells were grown on collagen I-coated 22×22 mm coverslips and processed as described in Cottle et al., (2007) J. Cell Sci. 120: 1423-1435 and Wiradjaja et al., (2013) Disease models & mechanisms, 6: 1426-1433).
# Tissue extracts were prepared in AlphaLISA Surefire Ultra lysis buffer. Cell extracts were prepared in 1% Triton X-100 in Tris-buffered saline pH7.4 with Roche complete mini protease and PhosSTOP inhibitor tablets as described above. Immunoblotting was performed using standard techniques, with antibodies listed below. Densitometry values were determined using ImageJ software and occasional extreme outliers more than 2 standard deviations from the mean omitted.
# [3] = Solubility of Alisertib in the oral dosing vehicle; format: physicochemical; conditions: 3.6 mg/ml in 10% 2-hydroxypropyl-β-cyclodextrin, 1% sodium bicarbonate, 5% glucose
# Protocol: Alisertib treatment was performed based on previously published protocols (Nikonova et al., (2014) PNAS 111:12859-12864; Nikonova (2015) Frontiers Oncol. 5:228), as follows: Starting at P9 Inpp5e^Δ/Δ and Inpp5e^Δ/Δ mice were treated once daily for 5 days with Alisertib delivered orally by pipette in a suspended solution with a final composition of 3.6 mg/ml Alisertib (S1133, Selleck Chemicals) in 10% 2-hydroxypropyl-β-cyclodextrin (H5784-10ML, Sigma-Aldrich) with 1% (vol/vol) sodium bicarbonate (S8761-100ML, Sigma-Aldrich) and 5% glucose (49163-100ML, Sigma-Aldrich). Mice were dosed with a volume to deliver Alisertib at 10 mg/kg. Mouse body weights were recorded daily. Solutions were stored at 4 degrees for up to 1 month. […] Mice were then given 2 recovery days before being sacrificed at P15. This time frame was selected as it corresponded to an exponential rise in cyst number in Inpp5e^Δ/Δ mice. Aurka^Δ/Δ and Inpp5e^Δ/Δ; Aurka^Δ/Δ treatment groups were also included to determine the AURKA specificity of any phenotypes observed given Alisertib's broad drug targeting profile.
# [4] = Inpp5e^Δ/Δ mice, 10 mg/kg orally P9 to P13, P15, vs vehicle
# [5] = double mutant mice, relative to vehicle controls
# [6] = mice in which Aurka had been predominantly deleted, 10 mg/kg orally P9 to P13, P15
# [7] = 1 μM Alisertib, 48 hrs, growth conditions
structure (smiles),measurement,setting,value
COc1cc(Nc2ncc3c(n2)-c2ccc(Cl)cc2C(c2c(F)cccc2OC)=NC3)ccc1C(=O)O [Alisertib],levels of nuclear localised active p53 in collecting duct cells,"Inpp5e^Δ/Δ mice; 10 mg/kg orally once daily P9 to P13, tissue at P15",increased levels of nuclear localised active p53
same,cilia number (% ciliated collecting duct cells),"Inpp5e^Δ/Δ mice; Inpp5e^Δ/Δ kidneys, vs vehicle",markedly reduced cilia number
same,co-expression of high levels of AURKA and AKT pT308 in collecting duct cells,"Inpp5e^Δ/Δ mice; Inpp5e^Δ/Δ kidneys, vs vehicle",increased co-expression of high levels of AURKA and AKT pT308
same,cyst size,Inpp5e^Δ/Δ mice; [4],reduced cyst size
same,kidney to body weight ratio and kidney size,Inpp5e^Δ/Δ mice; [4],marked reduction in kidney to body weight ratio and kidney size
same,number of cysts,Inpp5e^Δ/Δ mice; [4],increased in the number of cysts
same,hair loss,"Inpp5e^Δ/Δ mice; all Alisertib-treated mouse cohorts vs vehicle, 10 mg/kg orally once daily P9 to P13, tissue at P15",hair loss observed in all treated mouse cohorts
same,cystic index %,"Inpp5e^Δ/Δ mice; cystic genotypes Inpp5e^Δ/Δ and Inpp5e^Δ/Δ, Aurka^Δ/Δ, vs vehicle",no Alisertib-induced changes
same,cystic disease,[1],exaggerates cystic disease
same,AKT pT308 expression,[2]; [5],did not show reduced ciliation or AKT pT308 expression
same,ciliation,[2]; [5],did not show reduced ciliation
same,cyst index,[2]; [6],No change
same,cyst number,[2]; [6],No change
same,cyst size,[2]; [6],No change
same,kidney to body weight ratio,[2]; [6],No change
same,AURKA protein level,"mIMCD3 cells; 1 μM Alisertib, 48 hrs of exposure, growth conditions",two-fold increase in AURKA protein
same,AKT phosphorylation at S473 (AKT pS473/total AKT expression ratio),mIMCD3 cells; [7],but not S473
same,AKT phosphorylation at T308 (AKT pT308/total AKT expression ratio),mIMCD3 cells; [7],increasing AKT phosphorylation at T308
same,total AKT,mIMCD3 cells; [7],modestly reducing total AKT
same,rebound increase of AKT T308 phosphorylation,mIMCD3 cells; 24 hrs of Alisertib exposure,not observed following 24 hrs of Alisertib exposure
same,AURKA T288 phosphorylation ratio,mIMCD3 cells; Alisertib or vehicle for 48 hrs under growth conditions,reduces the AURKA T288 phosphorylation ratio
same,solubility in dosing vehicle,[3],largely insoluble
